The text below walks through data of patent US10479780B2, “Aminopyrazole derivatives” (Chugai Seiyaku Kabushiki Kaisha, priority 2015, dated 2019).

Like-named read-outs stand apart in the source and are kept apart here.

Type in all cases: biochemical
One assay deals with T1, human Yes1 enzyme (Homo sapiens, UniProt P07947).
T1 construct: made in house
Description: Yes1 enzyme inhibitory activity (time-resolved fluorometry, biotinylated peptide phosphorylation). Particulars: read-out: YES_IC50. The method, boiled down: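 Inhibition was expressed against a compound-free control to give IC50, using TR-FRET read-out (Eu-cryptate anti-pTyr antibody, streptavidin-XL665).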

The next assay concerns the target T2, human Src enzyme (Homo sapiens, UniProt P12931).
T2 construct: purchased Carna Biosciences, Inc. 08-173
Description: Src enzyme inhibitory activity (time-resolved fluorometry, biotinylated peptide phosphorylation). Particulars: read-out: SRC_IC50. The method, boiled down: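 Compounds were tested for blocking tyrosine phosphorylation of a biotinylated peptide substrate by recombinant human Src. Phosphorylated product was quantified by time-resolved fluorometry using europium cryptate and XL665 conjugates, and IC50 was calculated against the compound-free control.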

The target of another assay is T3, human Lck enzyme (Homo sapiens, UniProt P06239).
T3 construct: purchased Carna Biosciences, Inc. 08-170
Description: Lck enzyme inhibitory activity (time-resolved fluorometry, biotinylated peptide phosphorylation). Particulars: read-out: LCK_IC50. The method, boiled down:
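Readout pairs a europium cryptate-labelled anti-phosphotyrosine antibody with XL665-streptavidin, measured by time-resolved fluorescence. IC50 derived from percent inhibition against untreated controls.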

[1] abbreviates: biotinylated peptide phosphorylation.

T3 sequence (P06239 whole entry): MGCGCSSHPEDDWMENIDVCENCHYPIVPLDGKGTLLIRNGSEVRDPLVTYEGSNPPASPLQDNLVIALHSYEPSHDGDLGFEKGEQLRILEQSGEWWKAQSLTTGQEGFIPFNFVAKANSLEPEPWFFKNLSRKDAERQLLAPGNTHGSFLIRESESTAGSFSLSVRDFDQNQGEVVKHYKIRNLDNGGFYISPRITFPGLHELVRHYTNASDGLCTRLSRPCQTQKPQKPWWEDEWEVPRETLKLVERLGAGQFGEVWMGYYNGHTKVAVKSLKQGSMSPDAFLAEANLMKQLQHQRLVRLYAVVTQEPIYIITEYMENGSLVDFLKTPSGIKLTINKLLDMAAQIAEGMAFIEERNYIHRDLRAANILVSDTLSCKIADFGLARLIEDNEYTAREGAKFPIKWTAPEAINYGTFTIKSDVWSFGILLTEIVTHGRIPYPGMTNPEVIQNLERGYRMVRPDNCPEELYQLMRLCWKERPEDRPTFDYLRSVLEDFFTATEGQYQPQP
T1 sequence (P07947 whole entry): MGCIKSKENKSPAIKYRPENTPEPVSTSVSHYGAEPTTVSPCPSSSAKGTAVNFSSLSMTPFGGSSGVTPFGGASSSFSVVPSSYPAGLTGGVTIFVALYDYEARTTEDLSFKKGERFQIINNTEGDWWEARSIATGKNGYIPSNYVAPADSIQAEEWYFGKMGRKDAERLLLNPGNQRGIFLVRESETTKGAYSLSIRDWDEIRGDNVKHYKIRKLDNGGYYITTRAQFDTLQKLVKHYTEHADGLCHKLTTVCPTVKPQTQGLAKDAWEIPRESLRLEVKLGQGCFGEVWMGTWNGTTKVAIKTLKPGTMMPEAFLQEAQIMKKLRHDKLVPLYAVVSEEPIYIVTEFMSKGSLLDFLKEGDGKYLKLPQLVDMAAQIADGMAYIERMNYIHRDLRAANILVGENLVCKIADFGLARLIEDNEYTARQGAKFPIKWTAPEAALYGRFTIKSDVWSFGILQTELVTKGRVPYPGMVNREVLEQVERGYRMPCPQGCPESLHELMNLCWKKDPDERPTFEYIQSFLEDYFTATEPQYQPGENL
T2 sequence (P12931 whole entry): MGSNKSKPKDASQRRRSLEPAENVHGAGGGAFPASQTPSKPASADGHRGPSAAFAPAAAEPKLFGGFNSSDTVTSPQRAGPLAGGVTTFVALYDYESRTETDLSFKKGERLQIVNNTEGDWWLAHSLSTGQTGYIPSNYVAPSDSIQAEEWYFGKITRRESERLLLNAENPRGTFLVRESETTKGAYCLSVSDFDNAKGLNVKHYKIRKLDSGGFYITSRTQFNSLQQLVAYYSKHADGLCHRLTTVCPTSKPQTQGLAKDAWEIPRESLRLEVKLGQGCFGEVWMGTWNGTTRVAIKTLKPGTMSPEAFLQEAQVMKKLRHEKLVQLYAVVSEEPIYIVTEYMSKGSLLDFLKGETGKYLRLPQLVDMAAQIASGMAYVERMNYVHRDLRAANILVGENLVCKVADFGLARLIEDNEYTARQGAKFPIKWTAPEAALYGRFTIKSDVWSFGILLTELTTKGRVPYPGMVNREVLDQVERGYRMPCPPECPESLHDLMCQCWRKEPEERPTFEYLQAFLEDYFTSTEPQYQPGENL

On to `Cc1cc(Oc2ccccc2Cl)cc(F)c1-n1ncc(C(=O)c2cc3cc(F)c(NS(C)(=O)=O)cc3[nH]2)c1N` [Example 4-7-009, N-[2-[5-amino-1-[4-(2-chlorophenoxy)-2-fluoro-6-methylphenyl]pyrazole-4-carbonyl]-5-fluoro-1H-indol-6-yl]methanesulfonamide], for which the IC50 at human Yes1 enzyme (setting [1]) came to 0.0037 µM; at human Src enzyme (setting [1]), 0.15 µM; at human Lck enzyme (setting [1]), 0.034 µM.

As for `Cc1cc(Oc2c(F)cccc2Cl)ncc1-n1ncc(C(=O)c2cc3cc(F)c(NS(C)(=O)=O)cc3[nH]2)c1N` [Example 4-2-035, N-[2-[5-amino-1-[6-(2-chloro-6-fluorophenoxy)-4-methylpyridin-3-yl]pyrazole-4-carbonyl]-5-fluoro-1H-indol-6-yl]methanesulfonamide], the values for the IC50 on human Yes1 enzyme (setting [1]), on human Src enzyme (setting [1]) and at human Lck enzyme (setting [1]) were 0.0013 µM, 0.059 µM and 0.0067 µM, respectively.

Regarding `Cc1cc2cc(C(=O)c3cnn(-c4cnc(Oc5c(F)cccc5F)cc4C)c3N)[nH]c2cc1NS(=O)(=O)CC(=O)NC(C)C` [Example 5-1-136, 2-[[2-[5-amino-1-[6-(2,6-difluorophenoxy)-4-methylpyridin-3-yl]pyrazole-4-carbonyl]-5-methyl-1H-indol-6-yl]sulfamoyl]-N-propan-2-ylacetamide], the IC50 is 0.0015 µM at human Yes1 enzyme, 0.027 µM at human Src enzyme and 0.023 µM on human Lck enzyme.

Regarding `Cc1cc(Oc2c(F)cccc2F)ncc1-n1ncc(C(=O)c2cc3cc(C(C)C)c(NS(=O)(=O)CCCF)cc3[nH]2)c1N` [Example 5-1-305, N-[2-[5-amino-1-[6-(2,6-difluorophenoxy)-4-methylpyridin-3-yl]pyrazole-4-carbonyl]-5-propan-2-yl-1H-indol-6-yl]-3-fluoropropane-1-sulfonamide], the IC50 at human Yes1 enzyme was 0.0098 µM; at human Src enzyme, 0.38 µM; on human Lck enzyme, 0.084 µM.

`Cc1cc2cc(C(=O)c3cnn(-c4cnc(Oc5ccccc5F)cc4C)c3N)[nH]c2cc1NS(=O)(=O)c1cc(C#N)ccn1` [Example 5-1-478, N-[2-[5-amino-1-[6-(2-fluorophenoxy)-4-methylpyridin-3-yl]pyrazole-4-carbonyl]-5-methyl-1H-indol-6-yl]-4-cyanopyridine-2-sulfonainide]: the IC50 at human Yes1 enzyme (setting [1]) was 0.0048 µM; at human Src enzyme (setting [1]) it was 0.28 µM; at human Lck enzyme (setting [1]), 0.077 µM.

As to `Cc1cc2cc(C(=O)c3cnn(-c4cnc(Oc5c(F)cccc5F)cc4C)c3N)[nH]c2cc1NS(=O)(=O)N1CCOC[C@H]1C` [Example 5-1-292, (3R)-N-[2-[5-amino-1-[6-(2,6-difluorophenoxy)-4-methylpyridin-3-yl]pyrazole-4-carbonyl]-5-methyl-1H-indol-6-yl]-3-methylmorpholine-4-sulfonamide], the results for the IC50 on human Yes1 enzyme, at human Src enzyme and on human Lck enzyme were 0.019 µM, 0.63 µM and 0.088 µM, respectively.

With `Cc1cc(Oc2c(F)cccc2F)ncc1-n1ncc(C(=O)c2cc3cc(OC(F)F)c(C4CCN(C(=O)OC(C)(C)C)CC4)cc3[nH]2)c1N` [Example 4-1-012, tert-butyl 4-[2-[5-amino-1-[6-(2,6-difluorophenoxy)-4-methylpyridin-3-yl]pyrazole-4-carbonyl]-5-(difluoromethoxy)-1H-indol-6-yl]piperidine-1-carboxylate], the IC50 amounted to 0.034 µM at human Yes1 enzyme (setting [1]), 0.09 µM at human Src enzyme (setting [1]) and 0.039 µM on human Lck enzyme (setting [1]).

With `Cc1cc(Oc2ccccc2F)ncc1-n1ncc(C(=O)c2cc3cc(Cl)c(NS(C)(=O)=O)cc3[nH]2)c1N` [Example 4-2-085, N-[2-[5-amino-1-[6-(2-fluorophenoxy)-4-methylpyridin-3-yl]pyrazole-4-carbonyl]-5-chloro-1H-indol-6-yl]methanesulfonamide], the IC50 was 0.00081 µM at human Yes1 enzyme (setting [1]), 0.051 µM at human Src enzyme (setting [1]) and 0.0076 µM at human Lck enzyme (setting [1]).

With `Cc1cc(Oc2ccccc2F)ccc1-n1ncc(C(=O)c2cc3cc(OC(F)F)c(NC4CN(S(C)(=O)=O)C4)cc3[nH]2)c1N` [Example 4-23-023, [5-amino-1-[4-(2-fluorophenoxy)-2-methylphenyl]pyrazol-4-yl]-[5-(difluoromethoxy)-6-[(1-methylsulfonylazetidin-3-yl)amino]-1H-indol-2-yl]methanone], the IC50 was 0.00045 µM at human Yes1 enzyme (setting [1]), 0.017 µM at human Src enzyme (setting [1]) and 0.0058 µM on human Lck enzyme (setting [1]).

With `Cc1cc2[nH]c(C(=O)c3cnn(-c4c(C)cc(Oc5ccccc5F)cc4F)c3N)cc2cc1NS(C)(=O)=O` [Example 4-2-051, N-[2-[5-amino-1-[2-fluoro-4-(2-fluorophenoxy)-6-methylphenyl]pyrazole-4-carbonyl]-6-methyl-1H-indol-5-yl]methanesulfonamide], the IC50 was determined as 0.00059 µM at human Yes1 enzyme (setting [1]), 0.0038 µM at human Src enzyme (setting [1]) and 0.0012 µM on human Lck enzyme (setting [1]).

For the compound `Cc1cc(Oc2c(F)cccc2F)ncc1-n1ncc(C(=O)c2cc3cc(OCC(F)F)c(NS(=O)(=O)c4cccnc4)cc3[nH]2)c1N` [Example 5-1-384, N-[2-[5-amino-1-[6-(2,6-difluorophenoxy)-4-methylpyridin-3-yl]pyrazole-4-carbonyl]-5-(2,2-difluoroethoxy)-1H-indol-6-yl]pyridine-3-sulfonamide], the values for the IC50 at human Yes1 enzyme, at human Src enzyme and on human Lck enzyme were 0.0024 µM, 0.09 µM and 0.044 µM, respectively.

With `Cc1cc(Oc2cccc(F)c2F)ncc1-n1ncc(C(=O)c2cc3cc(Cl)c(NS(C)(=O)=O)cc3[nH]2)c1N` [Example 4-2-087, N-[2-[5-amino-1-[6-(2,3-difluorophenoxy)-4-methylpyridin-3-yl]pyrazole-4-carbonyl]-5-chloro-1H-indol-6-yl]methanesulfonamide], the IC50 on human Yes1 enzyme (setting [1]) is 0.0027 µM; on human Src enzyme (setting [1]), 0.22 µM; at human Lck enzyme (setting [1]) it was 0.055 µM.

Regarding `Cc1cc(Oc2ccccc2F)ccc1-n1ncc(C(=O)c2cc3cc(OCC(F)F)c(NS(=O)(=O)C4CCOCC4)cc3[nH]2)c1N` [Example 5-1-325, N-[2-[5-amino-1-[4-(2-fluorophenoxy)-2-methylphenyl]pyrazole-4-carbonyl]-5-(2,2-difluoroethoxy)-1H-indol-6-yl]oxane-4-sulfonamide], the figures for the IC50 on human Yes1 enzyme, at human Src enzyme and at human Lck enzyme were 0.0016 µM, 0.032 µM and 0.018 µM, respectively.

Regarding `Cc1cc2cc(C(=O)c3cnn(-c4cnc(Oc5ccccc5F)cc4C)c3N)[nH]c2cc1NS(=O)(=O)C1CCOCC1` [Example 5-1-333, N-[2-[5-amino-1-[6-(2-fluorophenoxy)-4-methylpyridin-3-yl]pyrazole-4-carbonyl]-5-methyl-1H-indol-6-yl]oxane-4-sulfonamide], the IC50 came to 0.002 µM at human Yes1 enzyme, 0.14 µM on human Src enzyme and 0.019 µM on human Lck enzyme.

As to `Cc1cc(Oc2ccccc2F)ccc1-n1ncc(C(=O)c2cc3cc(F)c(N4C(=O)NC5(CCC5)C4=O)cc3[nH]2)c1N` [Example 5-1-374, 7-[2-[5-amino-1-[4-(2-fluorophenoxy)-2-methylphenyl]pyrazole-4-carbonyl]-5-fluoro-1H-indol-6-yl]-5,7-diazaspiro[3.4]octane-6,8-dione], the IC50 turned out to be 0.0029 µM at human Yes1 enzyme, 0.036 µM at human Src enzyme and 0.013 µM at human Lck enzyme.

Regarding `Cc1cc(Oc2ccccc2F)ccc1-n1ncc(C(=O)c2cc3cc(OCC(F)F)c(NS(=O)(=O)CCCF)cc3[nH]2)c1N` [Example 4-24-022, N-[2-[5-amino-1-[4-(2-fluorophenoxy)-2-methylphenyl]pyrazole-4-carbonyl]-5-(2,2-difluoroethoxy)-1H-indol-6-yl]-3-fluoropropane-1-sulfonamide], the IC50 on human Yes1 enzyme (setting [1]) was 0.0032 µM; at human Src enzyme (setting [1]) it was 0.03 µM; on human Lck enzyme (setting [1]), 0.022 µM.

Consider `Cc1cc(Oc2cc(Cl)ccc2Cl)ncc1-n1ncc(C(=O)c2cc3cc(F)c(NS(C)(=O)=O)cc3[nH]2)c1N` [Example 5-1-055, N-[2-[5-amino-1-[6-(2,5-dichlorophenoxy)-4-methylpyridin-3-yl]pyrazole-4-carbonyl]-5-fluoro-1H-indol-6-yl]methanesulfonamide], for which the IC50 on human Yes1 enzyme amounted to 0.016 µM; on human Src enzyme, 0.19 µM; on human Lck enzyme, 0.094 µM.

Take `Cc1cc(Oc2ccccc2F)cc(F)c1-n1ncc(C(=O)c2cc3cc(OCC(F)F)c(N4CCN(S(C)(=O)=O)CC4)cc3[nH]2)c1N` [Example 4-23-006, [5-amino-1-[2-fluoro-4-(2-fluorophenoxy)-6-methylphenyl]pyrazol-4-yl]-[5-(2,2-difluoroethoxy)-6-(4-methylsulfonylpiperazin-1-yl)-1H-indol-2-yl]methanone]: the figures for the IC50 at human Yes1 enzyme (setting [1]), on human Src enzyme (setting [1]) and at human Lck enzyme (setting [1]) were 0.0027 µM, 0.022 µM and 0.013 µM, respectively.

Turning to `Cc1cc(Oc2ccccc2F)ccc1-n1ncc(C(=O)c2cc3cc(F)c(NS(=O)(=O)NC4COC4)cc3[nH]2)c1N` [Example 4-5-005, [5-amino-1-[4-(2-fluorophenoxy)-2-methylphenyl]pyrazol-4-yl]-[5-fluoro-6-(oxetan-3-ylsulfamoylamino)-1H-indol-2-yl]methanone], the IC50 on human Yes1 enzyme (setting [1]) came out at 0.00051 µM; on human Src enzyme (setting [1]), 0.029 µM; on human Lck enzyme (setting [1]), 0.011 µM.

As to `Cc1cc(-n2ncc(C(=O)c3cc4cc(OC5CCN(C(C)C)CC5)c(C5CCN(S(C)(=O)=O)CC5)cc4[nH]3)c2N)ccc1Oc1ccccc1F` [Example 5-1-230, [5-amino-1-[4-(2-fluorophenoxy)-3-methylphenyl]pyrazol-4-yl]-[6-(1-methylsulfonylpiperidin-4-yl)-5-(1-propan-2-ylpiperidin-4-yl)oxy-1H-indol-2-yl]methanone], the IC50 on human Yes1 enzyme was found to be 0.00068 µM; at human Src enzyme, 0.095 µM; at human Lck enzyme, 0.007 µM.
